Results: article PMC12721191, “Oxidative hypoxia drives TGF-β1–induced fibrosis under normoxia” (Redox Biology, 2025)

Key:
[1] = system: BLM-induced pulmonary fibrosis; assay: BLM-induced pulmonary fibrosis, Ashcroft scoring of lung sections; format: in vivo, ICR mice; conditions: BLM 30 mg/kg intratracheal; ACF-2 10 mg/kg i.p. every 2 days or NIDB 60 mg/kg/day in drinking water, 2 weeks; BLM-only 6.2
Procedure: Male ICR mice received BLM (30 mg/kg, intratracheal). […] Fixed left lung lobes were paraffin-embedded, sectioned (4 μm), and stained with H&E or MT. A blinded pathologist graded pulmonary fibrosis on the 1-8 Ashcroft scale; representative images illustrate typical lesions. Colon samples were processed by the swiss-roll method, stained with H&E, and scored for inflammation and erosion, which were combined into a composite histological score. All animal studies were approved by the Institutional Animal Care and Use Committee of Jeju National University (Approval ID: 2024-0058) and conducted in compliance with institutional guidelines. Male ICR mice (6 weeks old, average body weight 27 g) were purchased from […] (South Korea) and housed under controlled temperature (22 ± 2 °C) and humidity (0.0 ± 15.0 %) on a 12 hr light-dark cycle with free access to food and water. […] Lung tissue: Left lung lobes were fixed in 4% paraformaldehyde for 24 h, dehydrated, and embedded in paraffin. Sections of 4 μm thickness were prepared, deparaffinized with xylene, and rehydrated in a graded ethanol series. H&E staining was performed using hematoxylin and eosin solutions, respectively. The severity of fibrosis was graded according to the Ashcroft scale (1-8), as evaluated by a pathologist blindly. Representative H&E images were chosen to illustrate the most characteristic pathology. […]

[2] = system: colon; assay: Colonic histopathology in the BLM mouse study; format: in vivo, ICR mice; conditions: BLM mice; ACF-2 10 mg/kg i.p. every 2 days or NIDB 60 mg/kg/day
Description: Fixed left lung lobes were paraffin-embedded, sectioned (4 μm), and stained with H&E or MT. A blinded pathologist graded pulmonary fibrosis on the 1-8 Ashcroft scale; representative images illustrate typical lesions. Colon samples were processed by the swiss-roll method, stained with H&E, and scored for inflammation and erosion, which were combined into a composite histological score. All animal studies were approved by the Institutional Animal Care and Use Committee of Jeju National University (Approval ID: 2024-0058) and conducted in compliance with institutional guidelines. Male ICR mice (6 weeks old, average body weight 27 g) were purchased from […] (South Korea) and housed under controlled temperature (22 ± 2 °C) and humidity (0.0 ± 15.0 %) on a 12 hr light-dark cycle with free access to food and water. […] Colon tissue: Colons were harvested, flushed with 1xPBS, and prepared using the swiss-roll method before embedding in paraffin. Sections of 4 μm thickness were subjected to H&E staining as described above. Colonic injury was evaluated by two independent parameters: (i) inflammation score (0-3) and (ii) erosion score (0-3). A composite histological score was then calculated as the sum of inflammation and erosion scores for each sample.

[3] = system: BLM-induced pulmonary fibrosis; assay: RT-qPCR of lung tissue in BLM-treated mice; format: in vivo, ICR mice; conditions: BLM 30 mg/kg; ACF-2 10 mg/kg i.p. every 2 days or NIDB 60 mg/kg/day
Procedure: Total RNA (AccuPrep®) was reverse-transcribed and amplified with SYBR Green chemistry on a StepOnePlusTM system; relative expression was calculated by ΔΔCt. Male ICR mice received BLM (30 mg/kg, intratracheal). […] Total RNA was extracted from both cultured cells and mouse lung tissue using the AccuPrep® Universal RNA Extraction Kit. […] RT-qPCR was performed using iTaqTM Universal SYBR® Green Supermix on a StepOnePlusTM Real-Time PCR System. […] All animal studies were approved by the Institutional Animal Care and Use Committee of Jeju National University (Approval ID: 2024-0058) and conducted in compliance with institutional guidelines. Male ICR mice (6 weeks old, average body weight 27 g) were purchased from […] (South Korea) and housed under controlled temperature (22 ± 2 °C) and humidity (0.0 ± 15.0 %) on a 12 hr light-dark cycle with free access to food and water.

[4] = target: T1, Recombinant PHD2 (Homo sapiens, UniProt Q9GZT9); assay: In vitro PHD2 enzymatic assay (HIF peptide hydroxylation, HPLC); format: biochemical
T1 construct: purchased ActiveMotif, Japan 81065
Procedure: To identify whether TGF-β1 directly affects PHD2 enzymatic activity, we performed an in vitro PHD2 assay using synthetic HIF-1α peptide as a substrate (Fig. 2h). […] To further investigate whether Fe^2+ oxidation impairs PHD2 activity, we introduced H2O2 into the reaction to promote Fe^2+ oxidation.
A reaction mixture (30 µL total volume) containing 300 µM HIF peptide, 1 µM recombinant PHD2, 20 mM Tris-HCl (pH 7.5), 1 mM DTT, 300 µM ascorbic acid, 5 mM KCl, 1.5 mM MgCl2, 50 µM Fe(SO4)·6H2O, and 300 µM α-ketoglutarate was incubated at 30 °C for 2 hr. The reaction was terminated by adding an equal volume (30 µL) of DMSO. Product analysis was carried out on Waters 2998 HPLC system equipped with a photodiode array detector and an XBridge™ BEH C18 column (4.6 × 250 mm, 5 µm), detecting at 280 nm. A hydroxylated HIF peptide served as a reference standard.

[5] = system: A549; assay: Western blot of HIF-1α, fibrosis and EMT markers in A549; format: cell-based, human; conditions: for HIF-1α and COL4A6 levels (Western blot): A549, TGF-β1 co-treatment
[6] = system: A549; assay: Scratch migration assay; format: cell-based, human; conditions: CoCl2 or FG-4592 treatment
[7] = system: HIF-1α–EGFP in A549; assay: pg-HIF-1α–EGFP fluorescence in transfected A549; format: cell-based, human; conditions: A549, co-treatment with TGF-β1
Procedure: pg-HIF-1α–EGFP was introduced via jetOPTIMUS®; GFP fluorescence was quantified 48 h post-transfection.
Transient transfection of A549 cells with pg-HIF-1α–EGFP was performed using jetOPTIMUS® according to the manufacturer’s protocol. Following 48 hr of transfection, the medium was replaced, and cells were treated with TGF-β1 at the specified concentration and duration before further analysis. Cell imaging was performed using an EVOS™ M7000 at 10×, 20×, or 40× magnification. GFP fluorescence intensity was measured using ImageJ. The mean fluorescence within the regions of interest (ROIs) was calculated after background subtraction, and values were normalized to the control condition

T1 sequence (Q9GZT9 whole entry): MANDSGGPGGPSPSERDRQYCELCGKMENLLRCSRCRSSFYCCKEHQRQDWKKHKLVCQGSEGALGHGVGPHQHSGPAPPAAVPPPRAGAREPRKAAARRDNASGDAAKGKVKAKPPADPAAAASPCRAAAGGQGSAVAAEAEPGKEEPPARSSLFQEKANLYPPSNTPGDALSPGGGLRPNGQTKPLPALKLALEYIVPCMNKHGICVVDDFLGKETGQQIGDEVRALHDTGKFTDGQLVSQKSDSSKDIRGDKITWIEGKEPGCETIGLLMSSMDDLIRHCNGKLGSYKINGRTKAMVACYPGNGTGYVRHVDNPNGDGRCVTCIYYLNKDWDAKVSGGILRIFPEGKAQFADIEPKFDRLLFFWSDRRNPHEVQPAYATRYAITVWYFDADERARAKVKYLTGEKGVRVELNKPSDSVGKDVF

In the case of `COC(=O)c1ccc2c(c1)NC(=O)/C2=C(\Nc1ccc(N(C)C(=O)CN2CCN(C)CC2)cc1)c1ccccc1` [NIDB, nintedanib, reference compound], the “Average Ashcroft score” value [1] is reported as 3.8, the “composite histological score of colon (inflammation + erosion)” value [2] is reported as “significantly increased the composite histological score” and the “TGF-β1 (Tgfb1) expression in lung (RT-qPCR)” value [3] is reported as “markedly reduced”.
In the case of `O.Oc1cc(O)c2c(c1)O[C@H](c1ccc(O)c(O)c1)[C@@H](O)C2` [Catechin], the “effect on PHD2 activity” value ([4]; ambient air, comparable concentrations to ACF-2) is reported as “failed to preserve or enhance PHD2 activity”.
For `Cc1nc(C(=O)NCC(=O)O)c(O)c2ccc(Oc3ccccc3)cc12` [FG-4592], the “fibrosis-associated proteins (fibronectin, α-SMA, COL3A1, COL4A6)” value ([5]; A549, ambient air, CoCl2 200 μM, FG-4592 50 μM) was “increased expression of fibrosis-associated proteins” and the “cell migration (wound healing)” value [6] was “significant increase in cell migration”.
In the case of `CN(C)c1cccc(-c2c3c(=O)n(-c4ccccc4Cl)[nH]c3cc(=O)n2C)c1` [Setanaxib], the “HIF-1α and COL4A6 levels (Western blot)” value [5] is reported as “markedly reduced HIF-1α and COL4A6 levels”.
In the case of `c1ccc2c(c1)[I+]c1ccccc1-2` [DPI, diphenyleneiodonium chloride, reference compound], the “TGF-β1–induced HIF-1α–EGFP GFP fluorescence intensity” value [7] is reported as “substantial drop in GFP intensity” and the “HIF-1α and COL4A6 levels (Western blot)” value [5] is reported as “markedly reduced HIF-1α and COL4A6 levels”.
In the case of `OO` [H2O2], the “effect on PHD2 activity (H2O2 added to the reaction)” value ([4]; H2O2 introduced to promote Fe2+ oxidation) is reported as “inhibited PHD2 activity in a dose-dependent manner”.
For `COc1cc(C(C)=O)ccc1O` [apocynin], the “HIF-1α and COL4A6 levels (Western blot)” value [5] was “markedly reduced HIF-1α and COL4A6 levels”.
